{"source": "paper PMC4129416", "about": "“YLT192, a Novel, Orally Active Bioavailable Inhibitor of VEGFR2 Signaling with Potent Antiangiogenic Activity and Antitumor Efficacy in Preclinical Models” (Scientific Reports, 2014)", "key": {"HUVEC": {"tested_on": "HUVEC", "assay": "EdU incorporation assay, VEGF165-stimulated HUVEC", "format": "cell-based, human", "procedure": "The inhibition effect of YLT192 on VEGF165-stimulated HUVEC growth was examined using MTT assay.\nEdU is a thymidine analogue used to label proliferating cells which can incorporate into replication DNA when cells are dividing. Cells growing in 96-well plates were treated with different concentrations of YLT192 for 24 hours, and then assayed with Cell-Light™ EdU DNA Cell Proliferation Kit according to the manufacture's instructions. Each assay was replicated 3 times.\nSupplementary Figure S2. YLT192 inhibited VEGF-stimulated HUVECs proliferation in the EdU incorporation assay. The EdU-positive(red ﬂuorescent staining) cells and Hoechst staining(blue ﬂuorescent staining) cells represented proliferating and total cells, respectively(100×). Quantification was shown on the right panels. Data represent the mean ± SEM of three different experiments. Each experiment was performed in duplicate. *P<0.05, **P<0.01. […]"}, "SW620": {"tested_on": "SW620", "assay": "Inhibition of tumor cell growth", "format": "cell-based", "conditions": "SW-620; SW620, human colorectal carcinoma; 48 hour treatment; means ± SD, n=3", "text": "(§1) Data are means ± SD, n=3.\n(§2) cell line cell type IC50(μM) […]"}, "SPC-A1": {"tested_on": "SPC-A1", "assay": "Inhibition of tumor cell growth", "format": "cell-based", "conditions": "SPCA1; SPC-A1, human lung cancer; 48 hour treatment; means ± SD, n=3", "text": "as §1, §2"}, "BEL7402": {"tested_on": "BEL7402", "assay": "Inhibition of tumor cell growth", "format": "cell-based", "conditions": "Bel-7402; BEL7402, human hepatocellular carcinoma; 48 hour treatment; means ± SD, n=3", "text": "as §1, §2"}, "SMMC-7721": {"tested_on": "SMMC-7721", "assay": "Inhibition of tumor cell growth", "format": "cell-based", "conditions": "SMMC-7721, human hepatocellular carcinoma; 48 hour treatment; means ± SD, n=3", "text": "as §1, §2"}, "LS147T": {"tested_on": "LS147T", "assay": "Inhibition of tumor cell growth", "format": "cell-based", "conditions": "human colorectal carcinoma, 48 hour treatment, means ± SD, n=3", "text": "as §1, §2"}, "Hela": {"tested_on": "Hela", "assay": "Inhibition of tumor cell growth", "format": "cell-based", "conditions": "human epithelial carcinoma, 48 hour treatment, means ± SD, n=3", "text": "as §1, §2"}, "A431": {"tested_on": "A431", "assay": "Inhibition of tumor cell growth", "format": "cell-based", "conditions": "A-431; A431, human pidermoid carcinoma; 48 hour treatment; means ± SD, n=3", "text": "as §1, §2"}, "PANC-1": {"tested_on": "PANC-1", "assay": "Inhibition of tumor cell growth", "format": "cell-based", "conditions": "PANC-1, human pancreatic cancer; 48 hour treatment; means ± SD, n=3", "procedure": "(§3) The proliferative inhibitory ability of YLT192 on tumor cells was investigated. […] Inhibition of cell proliferation is a possible approach for cancer treatment. EdU incorporation assay was performed to investigate the anti-proliferative effects of YLT192 against U251 and HCT116 cells.\n(§4) treatment with YLT192. Data are means ± SD, n=3.\nas §2"}, "BxPC-3": {"tested_on": "BxPC-3", "assay": "Inhibition of tumor cell growth", "format": "cell-based", "conditions": "BxPC-3, human pancreatic cancer; 48 hour treatment; means ± SD, n=3", "procedure": "as §3, §4, §2"}, "Hep G2": {"tested_on": "Hep G2", "assay": "Inhibition of tumor cell growth", "format": "cell-based", "conditions": "HepG2; Hep G2, human hepatocellular carcinoma; 48 hour treatment; means ± SD, n=3", "procedure": "as §3, §4, §2"}, "U251 tumors": {"tested_on": "U251 tumors", "assay": "Subcutaneous xenograft model", "format": "in vivo", "conditions": "100 mg/kg oral once daily; U251 xenograft in nude mice; vs vehicle", "procedure": "(§5) Figure 5 Anti-tumor activities of YLT192 in vivo. (A) U251 and HCT116 tumor-bearing mice were treated orally with YLT192 at 25, 50 and 100 mg/kg or vehicle daily, respectively. […] (B) Body weight changes in YLT192 and vehicle treated mice. […] For A and B, data are means ± SD. (C) and (D), YLT192 inhibited tumor cell proliferation in HCT116 tumor tissues in vivo. Mice bearing HCT116 tumor xenograft were treated with YLT192 at 50 and 100 mg/kg or vehicle and sacrificed at the end of the experiment. The tumor tissues were removed for further immunohistochemistry analysis using anti-Ki67 (C) and anti-p-p44/42 MAPK antibodies (D). (E) YLT192 induced tumor cell apoptosis in HCT116 tumor in vivo. Apoptosis was measured by TUNEL staining (n = 6 mice per group). Scale bars represent 100 μm.\n(§6) All animal experiments were approved and conducted by the Institutional Animal Care and Treatment Committee of Sichuan University in China (Permit Number: 20121205). […] Tumor growth and body weight was measured every three days during the treatment. Tumor volumes were calculated using the formula as follow: volume (mm^3) = 0.5 × length (mm) × width (mm)^2. Growth inhibition was calculated from the start of treatment by comparison of the mean change in tumor volume for vehicle and treated group as before."}, "HCT116 tumors": {"tested_on": "HCT116 tumors", "assay": "Subcutaneous xenograft model", "format": "in vivo", "conditions": "100 mg/kg oral once daily; HCT116 xenograft in nude mice; vs vehicle", "procedure": "as §5, §6"}}}
{"smiles": "CNC(=O)c1cc(Oc2ccc(NC(=O)c3cccc(OC)c3)cc2)ccn1", "note": "[YLT192]", "values": [{"measurement": "VEGF165-stimulated HUVEC proliferation, EdU incorporation", "setting": "HUVEC", "result": "inhibited VEGF165-stimulated HUVEC proliferation"}, {"measurement": "IC50", "setting": "SW620", "result": "7.9 ± 1.7", "unit": "µM"}, {"measurement": "IC50", "setting": "SPC-A1", "result": "16.4 ± 1.4", "unit": "µM"}, {"measurement": "IC50", "setting": "BEL7402", "result": "11.3 ± 1.1", "unit": "µM"}, {"measurement": "IC50", "setting": "SMMC-7721", "result": "12.1 ± 1.6", "unit": "µM"}, {"measurement": "IC50", "setting": "LS147T", "result": "9 ± 1.1", "unit": "µM"}, {"measurement": "IC50", "setting": "Hela", "result": "18.9 ± 2.4", "unit": "µM"}, {"measurement": "IC50", "setting": "A431", "result": "7.7 ± 0.9", "unit": "µM"}, {"measurement": "IC50", "setting": "PANC-1", "result": "9.8 ± 1.9", "unit": "µM"}, {"measurement": "IC50", "setting": "BxPC-3", "result": "8.2 ± 0.6", "unit": "µM"}, {"measurement": "IC50", "setting": "Hep G2", "result": "7.9 ± 0.5", "unit": "µM"}, {"measurement": "tumor volume inhibition", "setting": "U251 tumors", "result": 60, "unit": "%"}, {"measurement": "tumor volume inhibition", "setting": "HCT116 tumors", "result": 61, "unit": "%"}]}
